Test results as given in US20240262804A1, “NITROGEN-CONTAINING HETEROCYCLIC KETONES, PREPARATION METHODS AND MEDICINAL USES THEREOF” (Hansoh Bio LLC, priority 2021, published 2024).

Assays:
[1] = target: bovine cardiac myosin (Bos taurus (Bovine), UniProt Q9BE39); experiment: Myosin inhibitory potency: PK/LDH-coupled ATPase assay on bovine skinned cardiac myofibrils; format: biochemical; conditions: pCa=6.25, 50 μM ATP, 25° C., read-out: myosin inhibition activity IC50
How it was run: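 Bovine left-ventricle skinned myofibrils (1 mg/mL) in PM12 buffer pH 6.8 at pCa 6.25, 50 μM ATP, PK/LDH-coupled NADH depletion read at 340 nm, 25 °C.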

[2] = target: bovine skinned cardiac myofibrils (myosin) (Bos taurus (Bovine), UniProt Q9BE39); experiment: Myosin inhibitory potency comparison: ATPase assay, cardiac myofibrils; format: biochemical; conditions: pCa=6.25
bovine skinned cardiac myofibrils (myosin), sequence (Q9BE39 whole entry): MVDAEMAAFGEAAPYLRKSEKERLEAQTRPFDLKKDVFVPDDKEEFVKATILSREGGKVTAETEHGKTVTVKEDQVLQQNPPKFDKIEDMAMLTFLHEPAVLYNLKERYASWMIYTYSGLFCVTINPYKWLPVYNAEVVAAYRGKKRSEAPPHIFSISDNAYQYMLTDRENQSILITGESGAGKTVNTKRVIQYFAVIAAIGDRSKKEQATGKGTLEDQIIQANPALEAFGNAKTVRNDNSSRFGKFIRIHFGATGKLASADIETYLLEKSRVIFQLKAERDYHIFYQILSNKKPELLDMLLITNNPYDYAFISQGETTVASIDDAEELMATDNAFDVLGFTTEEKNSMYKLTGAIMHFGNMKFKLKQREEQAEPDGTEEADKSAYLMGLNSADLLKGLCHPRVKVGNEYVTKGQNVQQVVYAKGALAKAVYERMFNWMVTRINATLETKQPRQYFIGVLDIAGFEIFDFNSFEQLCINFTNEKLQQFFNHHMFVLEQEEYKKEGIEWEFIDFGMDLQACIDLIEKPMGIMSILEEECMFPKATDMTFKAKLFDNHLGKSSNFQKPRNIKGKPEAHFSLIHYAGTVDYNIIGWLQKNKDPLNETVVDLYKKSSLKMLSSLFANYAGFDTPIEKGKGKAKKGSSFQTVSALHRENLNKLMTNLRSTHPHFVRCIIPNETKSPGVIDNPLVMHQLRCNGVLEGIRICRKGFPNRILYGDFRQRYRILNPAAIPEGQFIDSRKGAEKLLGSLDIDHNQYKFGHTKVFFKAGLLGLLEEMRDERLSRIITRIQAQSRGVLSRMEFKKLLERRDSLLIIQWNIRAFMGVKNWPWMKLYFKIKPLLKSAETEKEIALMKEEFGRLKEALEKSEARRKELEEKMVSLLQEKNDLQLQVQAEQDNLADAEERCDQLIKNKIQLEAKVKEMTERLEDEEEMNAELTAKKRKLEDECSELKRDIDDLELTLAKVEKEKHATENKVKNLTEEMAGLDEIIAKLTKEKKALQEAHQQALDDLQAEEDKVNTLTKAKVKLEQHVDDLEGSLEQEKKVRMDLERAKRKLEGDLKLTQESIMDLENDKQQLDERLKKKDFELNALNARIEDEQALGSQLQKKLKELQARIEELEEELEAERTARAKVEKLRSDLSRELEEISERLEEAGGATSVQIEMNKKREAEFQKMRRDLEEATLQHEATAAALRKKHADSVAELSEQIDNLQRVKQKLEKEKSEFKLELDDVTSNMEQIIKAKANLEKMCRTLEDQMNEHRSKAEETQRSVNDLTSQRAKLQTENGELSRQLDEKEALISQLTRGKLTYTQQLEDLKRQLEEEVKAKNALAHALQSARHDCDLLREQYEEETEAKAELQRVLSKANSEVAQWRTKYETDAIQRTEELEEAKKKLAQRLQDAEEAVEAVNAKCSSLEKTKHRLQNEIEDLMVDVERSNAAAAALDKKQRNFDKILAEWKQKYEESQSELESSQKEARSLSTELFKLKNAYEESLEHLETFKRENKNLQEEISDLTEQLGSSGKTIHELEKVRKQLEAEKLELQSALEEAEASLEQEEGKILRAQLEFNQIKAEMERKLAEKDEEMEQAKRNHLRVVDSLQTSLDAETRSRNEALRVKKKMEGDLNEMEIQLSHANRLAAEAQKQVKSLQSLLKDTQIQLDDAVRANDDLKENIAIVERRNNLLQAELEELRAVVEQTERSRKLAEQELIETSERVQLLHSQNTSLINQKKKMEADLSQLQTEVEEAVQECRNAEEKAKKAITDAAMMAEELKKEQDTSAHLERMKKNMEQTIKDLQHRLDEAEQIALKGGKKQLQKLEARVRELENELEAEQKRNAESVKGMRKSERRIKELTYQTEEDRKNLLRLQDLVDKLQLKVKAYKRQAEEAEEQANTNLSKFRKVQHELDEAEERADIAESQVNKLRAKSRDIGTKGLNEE
bovine skinned cardiac myofibrils (myosin), sequence (P85100 whole entry partner): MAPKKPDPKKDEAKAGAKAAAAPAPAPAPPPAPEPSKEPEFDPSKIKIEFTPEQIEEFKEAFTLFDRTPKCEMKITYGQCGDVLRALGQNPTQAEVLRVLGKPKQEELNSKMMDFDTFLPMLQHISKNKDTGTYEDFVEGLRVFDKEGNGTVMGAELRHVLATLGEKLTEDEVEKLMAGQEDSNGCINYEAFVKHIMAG
bovine skinned cardiac myofibrils (myosin), sequence (Q3SZE5 whole entry partner): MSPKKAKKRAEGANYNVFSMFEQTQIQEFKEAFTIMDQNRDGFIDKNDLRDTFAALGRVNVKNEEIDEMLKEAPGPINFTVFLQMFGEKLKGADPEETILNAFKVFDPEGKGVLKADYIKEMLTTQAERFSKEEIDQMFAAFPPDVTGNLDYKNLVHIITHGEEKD
Procedure: (§1) In our experiments, bovine skinned cardiac myofibrils were isolated from the frozen bovine left ventricle as myosin's source in the ATPase assay. The calcium concentration that achieves a 50% (pCa50 or pCa=6.25) activation of the myofibril system was chosen as the final condition for assessing the activation activity according to the literature (DOI: 10.1074/jbc.M117.776815). Myofibrils ATPase activity was measured in a buffered solution containing 12 mM PIPES (piperazine-N, N′-bis(2-ethane sulfonic acid) and 2 mM magnesium chloride at pH 6.8 (PM12 buffer). Final assay conditions were 1 mg/mL of bovine cardiac myofibrils, 1:20 of stock PK/LDH (Sigma-Aldrich, Cat No. P0294-5X5ML), 50 μM ATP, 1 mM DTT (dithiothreitol), 0.75 mM NADH, 1.5 mM PEP at pCa50 (pCa=6.25). Compounds were dissolved in DMSO (dimethyl sulfoxide). Serial dilution of compounds was created such that the final desired concentration of compound would be achieved in a volume of 150 μL with a fixed DMSO concentration of 2% (v/v). 75 μL of a solution containing bovine cardiac myofibrils, PK/LDH, and calcium were added to a 96 well plate for a 7 point dose-response. In some circumstances, 10 point-response was used to repeat the ATPase assays on compounds of interest. Compounds were added to the myofibrils solution and incubated for 5 minutes. The enzymatic reaction was started with the addition of 75 μL of a solution containing ATP, PEP, NADH, compounds, and calcium. The ATPase activity was measured by reading absorbance at 340 nm in a PerkinElmer Victor Nivo plate reader at 25° C. in kinetic mode for 15 minutes using clear bottom plates. The slopes of the absorbance changes as a function of time for the first 10 minutes were normalized to slopes on the control wells containing all reagents, including DMSO, but without compounds. This normalized rate was then plotted as a function of small molecule concentration in GraphPad prism 9. The data were fitted to a four-parameter fit, and IC50 was calculated using Graphpad Prism 9.
(§2) Bovine skinned cardiac myofibrils were isolated from the frozen bovine left ventricle, and rabbit skinned skeletal myofibrils were isolated from the frozen rabbit Psoas major and minor muscles as myosin's source in the ATPase assay. The calcium concentration that achieves a 50% activation of the myofibril system (pCa=6.25 for bovine cardiac myofibrils and pCa=6 for rabbit skeletal myofibrils) was chosen as the final condition for assessing the activation activity according to the literature (DOI:10.1074/jbc.M117.776815). Rest of ATPase assay conditions are the same as illustrated in experiment 1.

[3] = test system: rabbit skinned skeletal myofibrils (myosin); experiment: Myosin inhibitory potency comparison: ATPase assay, skeletal myofibrils; format: biochemical
Procedure: as §1, §2

[4] = test system: isolated rat ventricular myocytes; experiment: Cardiomyocyte contractility assay (sarcomere shortening, IonOptix); format: cell-based
Procedure: The effects of compounds on sarcomere shortening in isolated rat ventricular myocytes were assessed using the IonOptix apparatus.
Myocytes were placed in a chamber mounted on the stage of an inverted microscope and continuously superfused with oxygenated Tyrode solution containing (in millimolar): 121 NaCl, 5 KCl, 2.8 NaCH3CO2, MgCl2·6H2O, Glucose, NaHCO3, Na2HPO4. 7H2O, and 1.5 mM CaCl2). Solution was preheated at 36±1° C. and electrical-field stimulated at 1 Hz by 2 platinum electrodes connected to a Myopacer field stimulator (IonOptix Corporation) with 4 ms square-wave bipolar pulses (10 V). Cells were illuminated by the microscope light. The cell image was collected by a x40 ultraviolet epifluorescence objective, diverted to the microscope side port, where the cell image was recorded by a charge coupled device (CCD) camera (MyoCam, IonOptix Corporation), converting optical brightness (pixels) into electrical signals (voltage). The MyoCam configuration allowed acquisition of up to 240 images per second (240 Hz frame rate). Contractile properties of the myocytes were analyzed in real time by a video detector and a personal computer-based data acquisition system (Ionwizard 6.0, IonOptix Corporation). Only myocytes with clear striations, quiescent prior to pacing with a resting sarcomere length greater or equal to 1.75 μm were used, since this is presumed to represent the lower limit for healthy cells.
Sarcomere shortening was monitored in control solution (predrug) until stable recordings were obtained (baseline period). To determine the response to compounds, myocytes were first superfused for 60 seconds with Tyrode's buffer followed by at least a 5 minute—(or until steady state was reached, up to 10 min) superfusion of compound. Each cell was subjected to 2 concentrations (5 and 15 uM or 5 and 10 uM) of test compounds. For some cells, a washout period was performed after the last concentration. Duration of the washout period was variable, resulting in variability in the washout data. In separate cells, a single concentration of isoproterenol (100 nM) was applied. Data were continuously recorded using the IonOptix software. Contractility data were analyzed using Ionwizard software (IonOptix). For each cell, 10-15 contractility transients at baseline and after treatment were averaged and compared.

[5] = Pharmacokinetic profiles in male SD rats (IV and PO); format: in vivo, rat; conditions: IV 1 mg/kg, PO 5 mg/kg, route for this parameter not given
Procedure: Pharmacokinetic profile of compounds were determined by IV (1 mg/Kg) and PO (5 mg/Kg) administrations in male SD rats. Compounds were administrated with free base and formulated in 5% DMAC+25% PEG-400+70%(30% 2-HP-β-CD in water). The compounds were dosed at 1 mg/kg for intravenous and 5 mg/kg oral administration. Blood samples were collected at 0, 0.083, 0.25, 0.5, 1, 2, 4, 8 and 24 hours post dose, serial bleeding for plasma for the IV group. Blood samples were collected at 0, 0.25, 0.5, 1, 2, 4, 6, 8 and 24 hours post dose, serial bleeding for the PO group. Approximately 150 μL whole blood/time point were collected in K2EDTA tube via jugular vein. Blood sample was put on ice and centrifuged at 2000 g for 5 min to obtain plasma sample within 15 minutes. PK parameters were estimated by non-compartmental model using WinNonlin 8.2.

[6] = test system: heart function (cardiac contractility); experiment: Echocardiography assessment of acute pharmacodynamic effect in rat cardiac contractility; format: in vivo; conditions: Spraw-Dawley rats
Procedure: The Effect of Compounds on Heart Function was Determined by Echocardiography in Spraw-Dawley rats. Rats were under light anesthesia with 1-2% isoflurane. Compounds were dosed via oral gavage as single PO. Baseline heart functions were measured 1 day before dosing. The effect of compounds on heart function were measured at 1, 3, 6, and 24 hours post dosing. About 250 μL of whole blood was obtained at ˜1, 3, 6 and 24 hours post-dose via tail vein, immediately after the Echocardiography procedure. Blood was placed into a plasma separator tube containing K2 EDTA and kept on wet ice until processing. Blood samples were centrifuged at 2,000 g (4,400 rpm, Eppendorf 5417R) for 10 minutes at 4° C. Plasma samples were then transferred into micro-tubes and stored at −80° C. for future LC/MS analysis. The data were plotted as reduction of Fractional shortening vs plasma compound concentration. Therapeutic windows were determined as IC50/IC10 according to the literature (DOI: https://doi.org/10.1021/acs.jmedchem.1c01290).

bovine cardiac myosin, sequence (Q9BE39 whole entry): as the sequence (Q9BE39 whole entry) above
bovine cardiac myosin, sequence (P85100 whole entry partner): as the sequence (P85100 whole entry partner) above
bovine cardiac myosin, sequence (Q3SZE5 whole entry partner): as the sequence (Q3SZE5 whole entry partner) above

IC50 [1]: 1.84 µM
IC50 [2]: 1.5 µM
potency in inhibiting fast skeletal myofibril activity (in words) ([3]; compared with cardiac myofibrils): way less potent
Skeleta/Cardiac ([3]; ratio of skeletal IC50 to cardiac IC50): 29.01
DNAUC [5]: 1724.7 ng·h/mL
clearance ([5]; rat, plasma): 9.17 mL/min/kg
half-life ([5]; rat, plasma): 4.51 h
Vd ([5]; rat, plasma, read-out: VSS): 1.78 L/kg
SMILES: C[C@H](Nc1nc(=O)n(C2CCOCC2)c(=O)[nH]1)c1ccc(F)cc1F [Example 10]
cardiac-skeletal myosin selectivity (in words) [3]: better cardiac-skeletal myosin selectivity
Ratio of % FS 5 uM/15 uM ([4]; 5 uM versus 15 uM): 1.2
% FS (% reduction from baseline) at 5 uM ([4]; 5 uM, rat ventricular myocytes, paced at 1 Hz): 51 +/− 6%
% FS (% reduction from baseline) at 15uM ([4]; 15 uM, rat ventricular myocytes, paced at 1 Hz): 41.5 +/− 6.3%
effect on heart contractility at 20 mpk (FIG. 2) ([6]; single PO, 20 mpk): do not further inhibit heart contractility at 20 mpk
effect on heart contractility, dose dependence (FIG. 2) ([6]; single PO, up to 10 mpk): dose dependent under 10 mpk
therapeutic window, plasma exposure vs fractional shortening (in words) ([6]; therapeutic window as IC50/IC10): superior therapeutic windows
